# Source: publication PMC12005989, “Purification, identification, and in silico screening of a multifunctional octapeptide from semen armeniacae glutelin-2 hydrolysates: restraining mechanisms to Keap1 and ACE, stability, and ferrous-transport efficiency” (Frontiers in Nutrition, 2025)
# Where two headings read alike, the source gives them in different places. Ends that are not written are not given here.
# Columns and labels:
# [1] = Gastrointestinal stability of peptide (simulated gastric and intestinal digestion); assay type: in vitro ADME; settings: simulated gastric fluid (pepsin 0.40 mg/mL) 90 min, then intestinal fluid (pancreatin, bile salt) 2 h, 37°C; read-out retained activity; p > 0.05
# Procedure: (§1) As described by Wu et al. ([41]), the simulative gastric digestive fluid consisted of sodium chloride (0.18 mol/L), ultrapure water (180 mL), and 0.40 mg/mL of pepsin. The simulation intestinal digestive juice was composed of NaHCO3 (0.625 g/mL), bile salt (3 g/100 mL), pancreatin (0.35 mg/mL), and 180 mL ultrapure water. In a glass triangle flask, 300 mg of the antihypertensive and antioxidant BAG-2H peptides, 60 mL of ultrapure water, and 150 mL of the simulative gastric fluid were mixed thoroughly. The flask was placed at 37°C in an EDZF-C002 thermostatic vibrator with shaking rate of 140 rpm. After 90 min, 180 mL of the simulative intestinal hydrolysis fluid was added and stirred at 37°C for 2 h. To stop the hydrolysis, the digestion solution in the flask was boiled for 6 min and then cooled by running water to room temperature. The ACE inhibition capacity and antioxidant ability of the treated BAG-2H peptides were detected and compared to those of the undigested BAG-2H peptides.
# [2] = system: ACE; set-up: method as in 2 sources, ref 34 = [34]; doi:10.1016/j.fbio.2023.103419; 34. Zheng Y Ma J Guo Y Zhuang Y Yang Z Zhu Z . In silico screening and characterization, inhibition mechanism on ACE, and stability of antihypertensive peptides with Zn-chelating capacity identified f ||| ref 45 = [45]; PMID 38470110; doi:10.1021/acs.jafc.4c00829; 45. Martineau-Côté D Achouri A Karboune S L’Hocine L . Antioxidant and angiotensin-converting enzyme inhibitory activity of Faba bean-derived peptides after in vitro gastrointestinal digestion: insigh; settings: read-out: ACE-inhibitory IC50, cited from earlier work
# [3] = cited from earlier work
# Source text: The Asp., Val, Tyr, Phe, and Gly in […] can effectively bind to ferrous ions ([16], [20]). The γ-carboxyl group in Asp and phenolic hydroxyl groups in Tyr and Phe can form ionic bond with ferrous ions ([17]). Ascribed to the excellent metal ion-chelating capacity, Gly is an ideal ingredient for iron or calcium supplement ([45]). In addition, the carbo ...
# [4] = Ferric reducing ability, Prussian blue method; settings: 100 μg/mL, pH 6.8 phosphate buffer; determined at 700 nm; mean ± SD, triplicate
# Procedure: Ferric reducing ability was defined as the ability of antioxidants to provide protons, which was administrated according to the Prussian blue method ([2]). A total 1 mL of BAG-2H peptide solution (100 μg/mL, dissolved in 0.2 mol/L of phosphate buffer, pH 6.8) was reacted with potassium ferricyanide (10 mg/mL, 4 mL) in the EDZF-C002 thermostatic vibrator (50°C, 220 rpm) for 30 min. The reaction solution was cooled to 25 ± 1°C and precipitated using an equal volume of 100 mg/mL trichloroacetic acid for 10 min. Then, the reaction solution was centrifuged at 3000 × g for 25 min, and 1 mL of the upper solution was pipetted and reacted with 1 mg/mL of FeCl3 (1.2 mL) to produce Prussian blue (potassium ferrocyanide). The concentration of potassium ferrocyanide produced was positively correlated with the ferric reducing ability of the sample ([37]), which was determined at 700 nm using a HD-UV90 ultraviolet–visible spectrophotometer (Holder Technology Co. LTD, Weifang, China).
# As described by Wu et al. ([41]), the simulative gastric digestive fluid consisted of sodium chloride (0.18 mol/L), ultrapure water (180 mL), and 0.40 mg/mL of pepsin. […] The ACE inhibition capacity and antioxidant ability of the treated BAG-2H peptides were detected and compared to those of the undigested BAG-2H peptides.
# [5] = Hydroxyl radical quenching, β-deoxyribose oxidation method; settings: 100 μg/mL; mean ± SD, triplicate
# Procedure: Next, the purification of BAG-2H is a two-step process: first, BAG-2H solution (1 g/L) was subjected to ultra-filtration on an ultra-membrane (filter aperture of 220 nm, Jingfei Membrane Equipment Factory, Luzhou, China). Next, the ultra-filtrate solution (2 mL) was chromatographically purified citing the modified procedures from Li et al. ([30]). Pre-balanced G-15 gel was loaded into a HS-MG-125 chromatographic column (Huasheng Chromatography Tech. Co., Ltd., Wuxi, China). After the BAG-2H ultra-filtrate solution has completely sunk into the column plane, the gel chromatographic column was sealed and eluted using dH2O with a constant velocity of 2.4 mL/min and monitor wavelength of 220 nm. An automatic collector (BT-160I, Thirdli Collection Equipment Co., Ltd., Guangzhou, China) was used to collect the elution, and the collection tube was changed every 5 min ([34]). After 400 min, the profiles of absorbance at 220 nm against elution time were drawn, and the separation fractions were freeze-dried using the EHI-220D lyophilizer. The ACE-inhibitory, ferrous-binding, and hydroxyl radical quenching abilities of the separation fractions were detected citing the hippuric acid ([50]), […]. During screening of the separation fractions, ACE-inhibitory and hydroxyl radical quenching abilities were the primary indexes, and the amino acid sequences of the selected fraction were analyzed.
# The free radical quenching ability of samples, including superoxide, 2,2′-hydrazine-bis (3-ethylbenzothiazolin-6-sulfonic acid) diamine salt cation (ABTS^+), and hydroxyl radicals, was determined using the pyrogallol auto-oxidation, potassium persulfate, and β-deoxyribose oxidation methods, according to the same procedures from Tyagi et al. ([6]), Lin et al. ([2]), and Wang et al. ([35]), respectively. […]
# Physicochemical properties and functionalities of BAG-2H peptides, including antihypertension and antioxidant activity, were in silico analyzed with the AHTpin^2 and Peptide Ranker server^3 databases ([39]), respectively. […]
# [6] = Superoxide radical quenching, pyrogallol auto-oxidation method; settings: 100 μg/mL; mean ± SD, triplicate
# Procedure: (§2) The free radical quenching ability of samples, including superoxide, 2,2′-hydrazine-bis (3-ethylbenzothiazolin-6-sulfonic acid) diamine salt cation (ABTS^+), and hydroxyl radicals, was determined using the pyrogallol auto-oxidation, potassium persulfate, and β-deoxyribose oxidation methods, according to the same procedures from Tyagi et al. ([6]), Lin et al. ([2]), and Wang et al. ([35]), respectively. Comparison was conducted when the samples were replaced by glutathione (0.1 mg/mL).
# as §1
# [7] = ABTS+ radical quenching, potassium persulfate method; settings: 100 μg/mL; mean ± SD, triplicate
# Procedure: as §2
# as §1, with “To stop the hydrolysis, the digestion solution in the flask was boiled for 6 min and then cooled by running water to room temperature.” left out
# [8] = Ferrous solubility of ferrous chelate during simulated gastrointestinal digestion; assay type: in vitro ADME; settings: soluble ferrous by o-phenanthroline every 30 min
# Procedure: Next, the intestinal digestive fluid was added, and the digestion was continued at pH 6.8 for 2 h in the EDZF-C002 thermostatic vibrator ([…], 175 rpm).
compound,measurement,setting,value
PVDFAGFY,Stability of antioxidant activity and ACE-inhibitory capacity during gastrointestinal digestion,[1],stable during gastrointestinal digestion
GCHHY,IC50,[2]; peptide from millet bran glutelin-2,147 µM
VIPTEPPHA,IC50,[2]; peptide from Faba beans,260 µM
SELE [millet bran globulin peptide],Ferrous chelating ability,[3]; millet bran globulin peptide,7.93 mg/g
"N[C@@H](CCC(=O)N[C@@H](CS)C(=O)NCC(=O)O)C(=O)O [Glutathione, glutathione, reference compound]","Ferric reducing ability, before gastrointestinal",[4],0.675 ± 0.019a
same,"·OH scavenging activity, before gastrointestinal",[5],95.56% ± 1.38%a
same,"Superoxide radical scavenging ability, before gastrointestinal",[6],90.52% ± 4.97%a
same,"ABTS+ scavenging activity, before gastrointestinal",[7],79.25 ± 1.67%a
[Cl][Fe][Cl] [ferrous chloride],Ferrous solubility during gastric digestion (0–90 min),"[8]; simulated gastric fluid with pepsin, pH 1.9, 37°C, 175 rpm",relatively stable
same,Ferrous solubility during intestinal digestion (91–180 min),"[8]; simulated intestinal fluid, pH 6.8, 37°C",apparently decreased
FEDPEFE [scallop skirts peptide],Ferrous chelating ability,[3]; scallop skirts peptide,9.39 mg/g
